According to PubChem BioAssay (NCI):
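Exposure lasted 48 hours, with cells grown in 96-well plates and compounds tested at five concentrations. TGI: total growth inhibition.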

Key:
Assay in all cases: inhibition of tumour cell growth, NCI panel, 48 h
[1] = tested on: SK-MEL-5 melanoma
[2] = tested on: 786-0 renal
[3] = tested on: CAKI-1 renal
[4] = tested on: HT29 colon
[5] = tested on: RXF 393 renal
[6] = tested on: M14 melanoma
[7] = tested on: MOLT-4 leukemia
[8] = tested on: DU-145 prostate
[9] = tested on: HCC-2998 colon
[10] = tested on: HOP-62 NSCLC
[11] = tested on: PC-3 prostate
[12] = tested on: NCI-H23 lung
[13] = tested on: UACC-62 melanoma
[14] = tested on: KM12 colon
[15] = tested on: SK-MEL-28 melanoma
[16] = tested on: IGROV1 ovarian
[17] = tested on: RPMI-8226 leukemia
[18] = tested on: EKVX NSCLC
[19] = tested on: SW-620 colon
[20] = tested on: K-562 leukemia
[21] = tested on: MDA-MB-231 breast
[22] = tested on: SR leukemia
[23] = tested on: HL-60(TB) leukemia
[24] = tested on: SK-OV-3 ovarian
[25] = tested on: SNB-75 CNS
[26] = tested on: OVCAR-8 ovarian
[27] = tested on: UACC-257 melanoma
[28] = tested on: MDA-N
[29] = tested on: CCRF-CEM leukemia
[30] = tested on: SF-295 CNS
[31] = tested on: A549 NSCLC
[32] = tested on: COLO 205 colon
[33] = tested on: MALME-3M melanoma
[34] = tested on: SN12C renal
[35] = tested on: MCF7 breast
[36] = tested on: TK-10 renal
[37] = tested on: HCT-15 colon
[38] = tested on: T-47D breast
[39] = tested on: SF-268 CNS
[40] = tested on: NCI-H522 lung
[41] = tested on: OVCAR-5 ovarian
[42] = tested on: ACHN renal
[43] = tested on: NCI-H226 lung
[44] = tested on: SF-539 CNS
[45] = tested on: NCI/ADR-RES ovarian
[46] = tested on: LOX IMVI melanoma
[47] = tested on: SK-MEL-2 melanoma
[48] = tested on: NCI-H460 lung
[49] = tested on: U251 CNS
[50] = tested on: A498 renal
[51] = tested on: HOP-92 NSCLC
[52] = tested on: HCT-116 colon
[53] = tested on: OVCAR-3 ovarian
[54] = tested on: OVCAR-4 ovarian
[55] = tested on: HS 578T breast
[56] = tested on: MDA-MB-435
[57] = tested on: SNB-19 CNS
[58] = tested on: UO-31 renal

CCC1(c2ccccc2)Sc2ccccc2-n2cccc2C1=O (stereo not given)
TGI [1]: > 10 µM | TGI [2]: > 10 µM | TGI [3]: > 10 µM | TGI [4]: > 10 µM | TGI [5]: > 10 µM | TGI [6]: > 10 µM | TGI [7]: > 10 µM | TGI [8]: > 10 µM | TGI [9]: > 10 µM | TGI [10]: > 10 µM | TGI [11]: > 10 µM | TGI [12]: > 10 µM | TGI [13]: > 10 µM | TGI [14]: > 10 µM | TGI [15]: > 10 µM | TGI [16]: > 10 µM | TGI [17]: > 10 µM | TGI [18]: > 10 µM | TGI [19]: > 10 µM | TGI [20]: > 10 µM | TGI [21]: > 10 µM | TGI [22]: > 10 µM | TGI [23]: > 10 µM | TGI [24]: > 10 µM | TGI [25]: > 10 µM | TGI [26]: > 10 µM | TGI [27]: > 10 µM | TGI [28]: > 10 µM | TGI [29]: > 10 µM | TGI [30]: > 10 µM | TGI [31]: > 10 µM | TGI [32]: > 10 µM | TGI [33]: > 10 µM | TGI [34]: > 10 µM | TGI [35]: > 10 µM | TGI [36]: > 10 µM | TGI [37]: > 10 µM | TGI [38]: > 10 µM

C=C(C(N)=O)c1ccc([N+](=O)[O-])o1
TGI [1]: 16.4 µM | TGI [39]: 37.9 µM | TGI [2]: 24.1 µM | TGI [3]: 7.27 µM | TGI [4]: 30.6 µM | TGI [40]: 4.24 µM | TGI [5]: 9.64 µM | TGI [6]: 8.65 µM | TGI [7]: 18.8 µM | TGI [8]: 23.4 µM | TGI [41]: 35.2 µM | TGI [9]: 33.6 µM | TGI [10]: 46.8 µM | TGI [11]: 76 µM | TGI [42]: 12.2 µM | TGI [12]: 20.6 µM | TGI [13]: 21.4 µM | TGI [43]: 49.6 µM | TGI [14]: 34.8 µM | TGI [15]: 12.7 µM | TGI [44]: 27.2 µM | TGI [45]: > 100 µM | TGI [16]: 23.4 µM | TGI [46]: 23.1 µM | TGI [18]: 42 µM | TGI [47]: 22.5 µM | TGI [19]: 32.3 µM | TGI [20]: 26 µM | TGI [48]: 59 µM | TGI [49]: 34.6 µM | TGI [21]: 29.8 µM | TGI [22]: 36.9 µM | TGI [23]: 6.12 µM | TGI [24]: 87.9 µM | TGI [50]: 25.7 µM | TGI [25]: 37.1 µM | TGI [26]: 10.6 µM | TGI [27]: 21.7 µM | TGI [28]: 13.5 µM | TGI [51]: 19.5 µM | TGI [29]: 18.9 µM | TGI [30]: > 100 µM | TGI [52]: 14.7 µM | TGI [53]: 22.4 µM | TGI [31]: 40.3 µM | TGI [32]: 12.9 µM | TGI [54]: 29 µM | TGI [55]: 77.1 µM | TGI [33]: 5.51 µM | TGI [56]: 7.65 µM | TGI [34]: 22.4 µM | TGI [57]: > 100 µM | TGI [35]: 19.8 µM | TGI [36]: 27.2 µM | TGI [37]: 27.9 µM | TGI [38]: 48 µM

C[C@@H]1[C@H](C)N1CC(O)Cn1ccnc1[N+](=O)[O-] (stereo not given in full)
TGI [1]: > 100 µM | TGI [39]: > 100 µM | TGI [2]: > 100 µM | TGI [3]: > 100 µM | TGI [4]: > 100 µM | TGI [40]: > 100 µM | TGI [5]: > 100 µM | TGI [6]: > 100 µM | TGI [7]: > 100 µM | TGI [8]: > 100 µM | TGI [41]: > 100 µM | TGI [9]: > 100 µM | TGI [10]: > 100 µM | TGI [11]: > 100 µM | TGI [42]: > 100 µM | TGI [12]: > 100 µM | TGI [13]: > 100 µM | TGI [43]: > 100 µM | TGI [14]: > 100 µM | TGI [15]: > 100 µM | TGI [44]: > 100 µM | TGI [45]: > 100 µM | TGI [16]: > 100 µM | TGI [46]: > 100 µM | TGI [18]: > 100 µM | TGI [47]: > 100 µM | TGI [19]: > 100 µM | TGI [20]: > 100 µM | TGI [48]: > 100 µM | TGI [49]: > 100 µM | TGI [21]: > 100 µM | TGI [22]: > 100 µM | TGI [23]: > 100 µM | TGI [24]: > 100 µM | TGI [50]: > 100 µM | TGI [25]: > 100 µM | TGI [26]: > 100 µM | TGI [27]: > 100 µM | TGI [28]: > 100 µM | TGI [29]: > 100 µM | TGI [30]: > 100 µM | TGI [52]: > 100 µM | TGI [53]: > 100 µM | TGI [31]: > 100 µM | TGI [32]: > 100 µM | TGI [54]: > 100 µM | TGI [55]: > 100 µM | TGI [33]: > 100 µM | TGI [56]: > 100 µM | TGI [34]: > 100 µM | TGI [57]: > 100 µM | TGI [35]: > 100 µM | TGI [58]: > 100 µM | TGI [36]: > 100 µM | TGI [37]: > 100 µM | TGI [38]: > 100 µM
